From US8980276B2, “Conjugates for the prevention or treatment of nicotine addiction” (Pfizer Inc, priority 2010, dated 2015)

How the values were obtained:
[1] = Dissolution of hapten-spacer conjugate for coupling; type: physicochemical; conditions: at 50 mg per ml
Protocol: a) The hapten-spacer conjugates were obtained as a yellow oil and stored at 2 to 8° C. until the day of use (for up to one week, longer storage was at −20° C.). […] The result was a yellow-brown suspension or solution.

anti-nicotine antibodies = assay: Competition ELISA to determine specificity of antibodies induced by anti-nicotine vaccines; type: binding, mouse; conditions: plasma of mice immunized with conjugates of examples 1 and 2; inhibitors diluted serially from 20,000 μM

inhibition of binding of anti-nicotine antibodies to nicotine-coated ELISA plates by added inhibitor (anti-nicotine antibodies)	SMILES	solubility in deionised water [1]
	CN1CCC[C@H]1c1cncc(CCCNC(=O)CCCCCCN)c1 [Preparation 33, 7-amino-N-(3-{5-[(2S)-1-methylpyrrolidin-2-yl]pyridin-3-yl}propyl) heptanamide]	did not dissolve fully in deionised water
no such effect is observed	CN1C(=O)CC[C@H]1c1cccnc1 [cotinine]	
no such effect is observed	c1cnc2cc3c(cc2n1)[C@@H]1CNC[C@H]3C1 [varenicline]	

SMILES	inhibition of binding of anti-nicotine antibodies to nicotine-coated ELISA plates by added inhibitor (anti-nicotine antibodies)	solubility in deionised water [1]
CN1CCCC1c1cccnc1 (stereo not shown) [nicotine]	dose-dependent inhibition of binding	
